From ChEMBL document CHEMBL1909046, “DrugMatrix in vitro pharmacology data”

Columns and labels:
[1] = DRUGMATRIX: Atrial Natriuretic Factor (ANF) radioligand binding (ligand: [125I] ANF (rat)); assay type: cell membranes, Cavia porcellus, Dunkin-Hartley, Adrenal gland, Membrane; settings: Not Active = under 50% inhibition at 10 µM
[2] = DRUGMATRIX: Calcium Channel Type L, Phenylalkylamine radioligand binding (ligand: [3H] (-)-Desmethoxyverapamil (D-888)); assay type: cell membranes, Rattus norvegicus, Wistar, Brain, Membrane; settings: Not Active = under 50% inhibition at 10 µM
[3] = DRUGMATRIX: Imidazoline I2, Central radioligand binding (ligand: [3H] Idazoxan); assay type: cell membranes, Rattus norvegicus, Wistar, Cerebral cortex, Membrane; settings: Not Active = under 50% inhibition at 10 µM
[4] = target: Melanocortin receptor 5 (Homo sapiens, UniProt P33032); assay type: cell membranes, Membrane; settings: hek293; further: in other assays of this panel Not Active means under 50% inhibition at 10 µM
[5] = target: Mitogen-activated protein kinase 1 (Homo sapiens, UniProt P28482); assay: DRUGMATRIX: Protein Serine/Threonine Kinase, ERK2 enzyme inhibition (substrate: Myelin Basic Protein); parameters: species or system Escherichia coli; settings: Not Active = under 50% inhibition at 10 µM
[6] = target: T1, 5-hydroxytryptamine receptor 1A (Rattus norvegicus, UniProt P19327); assay type: cell membranes, Membrane; settings: cho-k1; further: in other assays of this panel Not Active means under 50% inhibition at 10 µM
T1 sequence (P19327 whole entry): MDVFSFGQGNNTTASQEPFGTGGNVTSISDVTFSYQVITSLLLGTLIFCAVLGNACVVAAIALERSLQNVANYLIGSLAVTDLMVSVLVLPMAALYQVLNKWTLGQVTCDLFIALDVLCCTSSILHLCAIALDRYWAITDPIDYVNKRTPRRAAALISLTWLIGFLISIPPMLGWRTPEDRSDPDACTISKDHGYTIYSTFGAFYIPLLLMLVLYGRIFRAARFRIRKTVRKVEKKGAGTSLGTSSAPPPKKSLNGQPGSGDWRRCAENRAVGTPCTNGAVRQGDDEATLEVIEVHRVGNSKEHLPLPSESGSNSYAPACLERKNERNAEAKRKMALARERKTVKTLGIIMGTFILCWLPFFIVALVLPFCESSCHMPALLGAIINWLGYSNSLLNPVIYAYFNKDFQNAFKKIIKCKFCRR

[7] = target: Cytochrome P450 2E1 (Homo sapiens, UniProt P05181); settings: bti-tn-5b1-4; further: in other assays of this panel Not Active means under 50% inhibition at 10 µM
Chain of Cytochrome P450 2E1 (P05181 whole entry): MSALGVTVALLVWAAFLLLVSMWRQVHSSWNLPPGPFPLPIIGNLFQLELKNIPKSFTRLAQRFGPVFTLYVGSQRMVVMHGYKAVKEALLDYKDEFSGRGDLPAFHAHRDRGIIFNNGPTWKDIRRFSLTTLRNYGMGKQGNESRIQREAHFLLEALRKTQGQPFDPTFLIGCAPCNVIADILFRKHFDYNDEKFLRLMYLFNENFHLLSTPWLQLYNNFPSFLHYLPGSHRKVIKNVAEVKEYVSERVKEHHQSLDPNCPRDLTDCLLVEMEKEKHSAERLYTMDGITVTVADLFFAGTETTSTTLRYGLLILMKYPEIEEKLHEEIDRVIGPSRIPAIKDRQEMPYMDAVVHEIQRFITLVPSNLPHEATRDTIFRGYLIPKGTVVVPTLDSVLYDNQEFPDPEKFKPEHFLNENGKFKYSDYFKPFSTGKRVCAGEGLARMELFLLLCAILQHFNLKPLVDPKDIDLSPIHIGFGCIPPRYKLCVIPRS

Chain of Mitogen-activated protein kinase 1 (P28482 whole entry): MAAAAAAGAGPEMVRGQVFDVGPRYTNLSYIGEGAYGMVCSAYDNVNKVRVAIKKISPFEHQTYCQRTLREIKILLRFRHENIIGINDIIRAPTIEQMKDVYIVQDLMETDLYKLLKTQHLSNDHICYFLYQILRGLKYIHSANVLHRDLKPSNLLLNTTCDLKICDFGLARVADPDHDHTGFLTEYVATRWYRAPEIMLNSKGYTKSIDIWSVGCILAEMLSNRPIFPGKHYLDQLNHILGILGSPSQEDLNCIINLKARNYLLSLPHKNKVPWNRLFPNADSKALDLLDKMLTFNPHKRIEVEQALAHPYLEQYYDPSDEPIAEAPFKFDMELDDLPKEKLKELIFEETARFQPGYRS
Chain of Melanocortin receptor 5 (P33032 whole entry): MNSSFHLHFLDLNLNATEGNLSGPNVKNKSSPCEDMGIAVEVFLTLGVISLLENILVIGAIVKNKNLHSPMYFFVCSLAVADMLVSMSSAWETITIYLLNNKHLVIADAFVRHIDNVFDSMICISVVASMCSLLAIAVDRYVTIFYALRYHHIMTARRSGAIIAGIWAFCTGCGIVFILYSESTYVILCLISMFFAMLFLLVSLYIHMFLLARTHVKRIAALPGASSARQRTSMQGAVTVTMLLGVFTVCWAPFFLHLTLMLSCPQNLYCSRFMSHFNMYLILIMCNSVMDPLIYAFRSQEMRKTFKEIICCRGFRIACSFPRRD

CADMIUM DICHLORIDE
Not Active: IC50 [1] | Ki [1] | IC50 [2] | Ki [2] | IC50 [3] | Ki [3] | IC50 [4] | Ki [4] | IC50 [5] | Ki [5] | IC50 [6] | Ki [6] | IC50 [7] | Ki [7]

CCCN(CCC)C(=O)C(CCC(=O)O)NC(=O)c1ccccc1 (stereo not given) [PROGLUMIDE]
Not Active: IC50 [1] | Ki [1] | IC50 [2] | Ki [2] | IC50 [3] | Ki [3] | IC50 [4] | IC50 [5] | IC50 [6] | IC50 [7] | Ki [7]

O=C(N[C@H](CO)[C@H](O)c1ccc([N+](=O)[O-])cc1)C(Cl)Cl [CHLORAMPHENICOL]
Not Active: IC50 [1] | Ki [1] | IC50 [2] | Ki [2] | IC50 [3] | Ki [3] | IC50 [4] | IC50 [5] | IC50 [6]

CCCCOc1ccc(OCCCN2CCOCC2)cc1 [PRAMOXINE]
Not Active: IC50 [1] | Ki [1] | IC50 [2] | Ki [2] | IC50 [3] | Ki [3] | IC50 [4] | IC50 [5] | IC50 [6] | IC50 [7] | Ki [7]

CC(C)(C(=O)c1cccnc1)c1cccnc1 [METYRAPONE]
Not Active: IC50 [1] | Ki [1] | IC50 [2] | Ki [2] | IC50 [3] | Ki [3] | IC50 [4] | IC50 [5] | IC50 [6] | IC50 [7] | Ki [7]

C[C@@H]1C[C@@H]([C@H](O)CC2CC(=O)NC(=O)C2)C(=O)[C@@H](C)C1 [CYCLOHEXIMIDE]
Not Active: IC50 [1] | Ki [1] | IC50 [2] | Ki [2] | IC50 [3] | Ki [3] | IC50 [4] | IC50 [5] | IC50 [6]

CCn1cc(C(=O)O)c(=O)c2cc(F)c(N3CCN(C)CC3)cc21 [PEFLOXACIN]
Not Active: IC50 [1] | Ki [1] | IC50 [2] | Ki [2] | IC50 [3] | Ki [3] | IC50 [4] | IC50 [5] | IC50 [6]

COc1ccc2cc([C@H](C)C(=O)O)ccc2c1 [NAPROXEN]
Not Active: IC50 [1] | Ki [1] | IC50 [2] | Ki [2] | IC50 [3] | Ki [3] | IC50 [4] | IC50 [5] | IC50 [6]

NC(=O)NO [HYDROXYUREA]
Not Active: IC50 [1] | Ki [1] | IC50 [2] | Ki [2] | IC50 [3] | Ki [3] | IC50 [4] | IC50 [5] | IC50 [6]

O=NN(CCCl)C(=O)NCCCl [CARMUSTINE]
Not Active: IC50 [1] | Ki [1] | IC50 [2] | Ki [2] | IC50 [3] | Ki [3] | IC50 [4] | IC50 [5] | IC50 [6]

O=C1CC2(CCCC2)CC(=O)N1CCCCN1CCN(c2ncccn2)CC1 [BUSPIRONE]
Not Active: IC50 [1] | Ki [1] | IC50 [2] | Ki [2] | IC50 [3] | Ki [3] | IC50 [4] | IC50 [5] | IC50 [7] | Ki [7]

C/C=C/C[C@@H](C)[C@@H](O)[C@H]1C(=O)N[C@@H](CC)C(=O)N(C)CC(=O)N(C)[C@@H](CC(C)C)C(=O)N[C@@H](C(C)C)C(=O)N(C)[C@@H](CC(C)C)C(=O)N[C@@H](C)C(=O)N[C@H](C)C(=O)N(C)[C@@H](CC(C)C)C(=O)N(C)[C@@H](CC(C)C)C(=O)N(C)[C@@H](C(C)C)C(=O)N1C [CYCLOSPORINE]
Not Active: IC50 [1] | Ki [1] | IC50 [2] | Ki [2] | IC50 [3] | Ki [3] | IC50 [4] | IC50 [5] | IC50 [6]
